≈ marks a conversion by molar mass, not a printed value.
Key:
[1] = human, in vivo
Experimental: Dose regimens evaluated were: 4 mg once daily and 2 mg twice daily, and 8 mg once daily and 4 mg twice daily.

[2] = test system: fasting plasma glucose (FPG) concentrations in diabetic patients; assay: PK/PD model (modified indirect response model IV) of the effect of Compound (I) on fasting plasma glucose in Type 2 diabetes patients; format: in vivo, human
Description: The method by which the Threshold Plasma Concentration, such as the SC50 concentration, for a given compound can be determined is:
2) the model predicted concentrations for the compound are then fed back into the model and used to determine the change in fasting plasma glucose levels after various doses;
3) the relationship between predicted plasma concentrations of compound and fasting plasma glucose can suitably be determined using an indirect pharmacological response model (model IV), for example that described in (Dayneka N L, Garg V and Jusko W J, Comparison of Four Basic Models of Indirect Pharmacodynamic Responses. J of Pharmacokinetics and Biopharmaceutics. Vol 21, No 4. 1993). This model yields estimates of glucose input rate (Kin) and output rate (Kout), maximal stimulation of glucose output (Smax). Hill coefficient (gamma) and the Threshold Plasma Concentration, such as the SC50 concentration (i.e the concentration associated with a half maximal response) to be determined for that compound. This method forms a further part of the present invention.
For Compound (I), it was necessary to account for a time delay between the time of actual initiation of dosing (week 0) and the observed change in fasting plasma glucose. This delay factor was estimated through the modelling for each dose level. […] The delay factor was incorporated into the model for deriving fasting plasma glucose by assuming that the first dose of drug occurred only after the time dictated by the delay factor. It is considered that for this model a delay factor would be required for other thiazolidinedione insulin sensitisers and that this factor will be substantially similar to that found for Compound (I). Delay factors for other compounds may also be required to be determined using similar methodology to that disclosed herein.
A modified indirect response model IV (Dayneka et al. 1993) was developed utilizing the pharmacokinetics of Compound (I) as the driving force for the change in fasting plasma glucose after various doses of Compound (I). Modeling fittings were done using ADAPT II, Release 4 (D'Argenio and Schumitzky, 1979).
In the absence of Compound (I), plasma glucose levels are governed by formation (kin) and utilization (kout). The action of Compound (I) was described as stimulation (S(t)) of the utilization of plasma glucose (kout), described in text as FPG reduction (Eq. 1). Smax represents the maximal stimulation, SC50 is the Compound (I) concentration associated with half-maximal stimulation and γ represents a sigmoidicity parameter in the Hill type function (Eq. 2). [formula]
The mean fasting plasma glucose profiles from 6 weeks prior to dosing (time 0) through 26 weeks of treatment for the 5 treatment groups are shown in FIG. 2. The PK/PD model accommodates the full nature of the fasting plasma glucose response over the duration of the study period as evidenced by the close agreement between observed and predicted fasting plasma glucose concentrations (FIG. 2). […] The lag-time allows the model to describe the slow onset of action of Compound (I) observed over the first 4 weeks of dosing.

- mean post hoc oral clearance [1]: 2.68 L/h
- EC50 ([2]; Homo sapiens, iv, estimated pharmacodynamic parameter, not in table, read-out: SC50 (plasma concentration associated with half-maximal effect on fasting plasma glucose)): 0.0514 µg/mL (≈ 0.144 µM)
Compound: CN(CCOc1ccc(CC2SC(=O)NC2=O)cc1)c1ccccn1 (stereo not shown) [Compound (I), 5-[4-[2-(N-methyl-N-(2-pyridyl)amino)ethoxy]benzyl]thiazolidine-2,4-dione]
- Smax (maximal stimulation of glucose utilization) ([2]; estimated pharmacodynamic parameter): 0.44
- lag-time (delay) between first dose and onset of FPG response ([2]; mean across dose levels, estimated through the modelling): 292 h
- maximum FPG reduction suggested by Smax of the model ([2]; model-derived): 160 mg/dL
- reduction in glycaemia ([2]; once daily dosing, study 024): clinically meaningful reductions in glycaemia are evident
- efficacy of twice daily versus once daily dosing ([2]; study 024, same total daily dose): twice daily dosing tended to be more efficacious than once daily

Reference: patent US20070275063A1, “SUSTAINED RELEASE PHARMACEUTICAL COMPOSITIONS AND METHODS OF TREATMENT USING THE SAME” (SmithKline Beecham Corporation, priority 1998, published 2007)
